Assay results reported in US20150258190A1, “NICOTINAMIDE AS ADJUVANT” (NOVARTIS AG, priority 2012, published 2015).

Tests used:
[1] = cited from earlier work
EsxAB = assay: Antibody titre at day 23 by Luminex assay; assay type: in vivo, mice; settings: day 23 after first vaccination
Method: (§1) At day 23 after the first vaccination with the S. aureus combination vaccine (i.e. one day prior to the challenge with a lethal dose of S. aureus), the HlaH35L, EsxAB, Sta006 and Sta011 antibody titres for each group of mice described in Example 2 were measured by Luminex assay.

Sta011 = assay: Antibody titre at day 23 by Luminex assay; assay type: in vivo, mice; settings: day 23 after first vaccination
Method: as §1

HlaH35L = assay: Antibody titre at day 23 by Luminex assay; assay type: in vivo, mice; settings: day 23 after first vaccination
Method: as §1

Sta006 = assay: Antibody titre at day 23 by Luminex assay; assay type: in vivo, mouse; settings: day 23 after first vaccination
Method: as §1

S. aureus = settings: NAM daily beginning 24 hours prior to or 12 hours after infection with S. aureus; cited from earlier work
S. aureus strain Newman = assay: Survival of vaccinated or mock-injected mice after challenge with a lethal dose of live S. aureus; assay type: in vivo, CD1 mice
Method: Four groups of 47 to 48 CD1 mice were treated as follows: CD1 mice were immunized twice via intraperitoneal injection two weeks apart (on day 0 and day 14), and each mouse received 200 μl of (mock-)vaccine. Groups 1 (Alum-Nam) and 2 (Alum) were mock-injected with alum (saline plus 2 mg/ml aluminium-hydroxide), groups 3 (Combo-NAM) and 4 (Combo only) were immunised with the S. aureus combination vaccine of Example 1. Groups 1 (Alum-Nam) and 3 (Combo-NAM) received 250 mg/kg NAM orally one day before and one day after challenge with a lethal dose of live S. aureus.
On day 24 (i.e. 10 days after the second vaccination), the immunised animals of groups 1-4 were challenged by intraperitoneal injection of a bacterial suspension of S. aureus strain Newman (approximately 2 to 5×10^8 CFU). Cultures of S. aureus were centrifuged, washed twice and diluted in PBS before challenge. Survival of the mice was monitored over a 15-day period post infection.
Survival rates were analysed by Mann-Whitney U-test. Mice were daily monitored and euthanized according to humane endpoints, in agreement with Novartis Animal Welfare Policies.

[2] = cited from earlier work; remark: listed apart in the source

## NC(=O)c1cccnc1 [NAM, nicotinamide]
[1]; animals and humans
  dose reported to be reversible hepatotoxic: > 3 g/day
[1]; human subjects
  side effects associated with treatment of human subjects: no significant side effects
[1]
  oncogenic / teratogenic in humans: neither oncogenic nor teratogenic
EsxAB
  EsxAB antibody titre in serum, group 3 (vaccinated, NAM treatment) vs group 4 (vaccinated, no NAM treatment): No significant difference
Sta011
  Sta011 antibody titre in serum, group 3 (vaccinated, NAM treatment) vs group 4 (vaccinated, no NAM treatment): No significant difference
HlaH35L
  HlaH35L antibody titre in serum, group 3 (vaccinated, NAM treatment) vs group 4 (vaccinated, no NAM treatment): No significant difference
Sta006
  Sta006 antibody titre in serum, group 3 (vaccinated, NAM treatment) vs group 4 (vaccinated, no NAM treatment): No significant difference
S. aureus
  immune killing of the bacteria: dramatically enhances
S. aureus strain Newman; CD1 mice, (mock-)vaccine i.p. day 0 and 14, i.p. challenge day 24, NAM 250 mg/kg orally one day before and one day after challenge
  mice that survived until 15 days post infection: 9%
S. aureus strain Newman; mice immunized with S. aureus combination vaccine, NAM 250 mg/kg orally
  mortality in comparison to mice which had received only the vaccine: significantly decreased
S. aureus strain Newman; mice treated with alum alone, NAM 250 mg/kg orally
  protecting mice against a lethal infection with S. aureus: not effective

## Nc1cccc2c1CN(C1CCC(=O)NC1=O)C2=O (centres unmarked) [lenalidomide]
[1]
  oncogenic / teratogenic in humans: potentially teratogenic
  bone marrow toxicity as adverse effect in patients: frequently observed

## Nc1cccc2c1C(=O)N(C1CCC(=O)NC1=O)C2=O (centres unmarked) [pomalidomide]
[1]
  oncogenic / teratogenic in humans: potentially teratogenic
  bone marrow toxicity as adverse effect in patients: frequently observed

## N[C@H](CCC(=O)N[C@@H](Cc1c[nH]c2ccccc12)C(=O)O)C(=O)O [γ-D-glutamyl-L-tryptophan]
[2]; human, in vivo
  adverse effects on administration to human subjects: without adverse effects
[2]; humans
  clinical effect on oral mucositis: no clinical effect
